Test results taken from patent US9187784B2, “EphA4 is a disease modifier in motor neuron disease” (VIB VZW, priority 2011, dated 2015).

Test system: non-transgenic or wild-type SOD1-expressing fish
Test: axonal and total body length in non-transgenic or wild-type SOD1-expressing fish
Format: in vivo
Conditions: zebrafish, average ± s.e.m.
Experimental: Y-axes show motor axon length of non-transgenic (black bar) or SOD1WT-expressing (white bar) zebrafish embryos, injected with either atg-RTK2 (shaded bars, Panel A) or atg-RTK1 morpholino (shaded bars, Panel B). Ctr-RTK2 and ctr-RTK1 were used as controls. Error bars are s.e.m.
To identify disease-modifying genes in ALS in an unbiased way, knockdown screening was performed in the mutant SOD1 zebrafish model (reference 13), using a library of 303 translation blocking morpholinos (atg-mo), of which 58 were targeting genes presumed to be neuronally expressed (according to the NCBI database) and 245 randomly chosen targeting genes. […] The morpholino yielding the highest rescue in two separate experiments was studied further. It targets zebrafish receptor tyrosine kinase 2 (RTK2, also known as epha4b), which has 67% identity and 80% homology to the human orthologue EPHA4. Knockdown of RTK2 in fish expressing mutant SOD1 completely and dose-dependently rescued the motor axonopathy (both axonal length and aberrant branching) caused by three different SOD1 mutations: A4V, G93A and G37R (FIG. 1, Panels A-F; Table 2). […] Receptor tyrosine kinase 1 (RTK1, also known as epha4a), the fish paralogue of RTK2, has 83% identity and 92% homology to human EPHA4. RTK1 knockdown was dose-dependently and equally protective as RTK2 knockdown (FIG. 1, Panel G; Table 4). […]

“5′-CTGTGAACACAAGCGCAGCCATTGG-′3 (all phosphorodiamidate morpholino (PMO)) [atg-RTK1]” was tested, and the body length was 2.61±0.01 mm.
